Where two headings read alike, the source gives them in different places.
Experiments:
murine FRDA cell model = conditions: cited from earlier work
[1] = tested on: human fibroblast FRDA model; conditions: cited from earlier work
yeast model of FRDA = conditions: cited from earlier work
murine model of FRDA = conditions: Abeti et al. 2016; cited from earlier work
H9C2 myoblasts = conditions: other oxidative stress paradigms; cited from earlier work
in vivo = assay: in vivo; design: species or system mice and rats; conditions: rat
Procedure: Single- and repeat-dose studies are conducted in mice and rats using both oral gavage and dietary administration of substituted compounds as described herein (e.g., D-PUFA and ester thereof) for up to 26 weeks. […] The NOAELs established in the 8- and 26-week studies correspond to an average consumption of the substituted compounds studied in the amount of ˜362 and ˜452 mg/kg, respectively. The high dose diets in these studies contained no natural LA. […] This is consistent with the substituted compounds as described herein (e.g., D-PUFA and ester thereof) (di-deutero linoleic acid) being, for dietary purposes, equivalent to and biologically interchangeable with normal dietary LA as a sole source of LA by the rats in this study. […] The body weights, organ weights, percent of each organ composed of PUFAs, distribution of PUFA species in each tissue, and the PUFA composition of red blood cells are not changed versus controls.

[2] = tested on: patient with Infantile Neuroaxonal Dystrophy (INAD), mutation in both copies of the PLA2G6 gene; assay type: in vivo, human
Text: (§1) A study in the fatal neurodegenerative disease, Infantile Neuroaxonal Dystrophy (INAD) was initiated in March 2017. At study onset, the subject with a genetic mutation in both copies of the PLA2G6 gene, was mostly unresponsive to stimuli and unable to perform virtually any activity. All normal development milestones previously acquired had been lost. Prognosis was that a feeding tube would be required in the near term progression of the disease. The patient received dosing of a D-PUFA (11,11-D2-linoleic acid), 1.8 g twice a day, for a six month trial under an Expanded Access (Compassionate Use) protocol. As they were unable to swallow a pill, soft gels containing the D-PUFA were placed in warm liquid (water or milk), pierced with a fork, and the active oil pressed into the liquid, which was then soaked into food or a cookie, and administered.
FIG. 1 summarizes the baseline and one year treatment status of the patient (degree of impairment: (0) for severely impaired, (+1) for moderately impaired, (+2) for mildly impaired or no impairment).
After 2 months on drug, […] regained sufficient bulbar function to terminate syringe feeding of liquids and returned to drinking from a child's sippy cup.
(§2) One month and three month plasma level of deuterated polyunsaturated fatty acid was at steady state at approximately 44% total (dietary plus modified) linoleic acid, indicating excellent uptake and absorption of a therapeutic level of drug (>˜10-15%). Deuterated arachidonic acid was observed as present in the plasma at 0.6% and 3.0% of total arachidonic acid at month one and three months; respectively.
INAD is a strictly progressive disease, only worsening with time. Stabilization of regressions and recovery of lost milestones indicated effectiveness of the test treatment in a single, severely affected INAD patient.

[3] = female, human, in vivo
Text: as §1, §2

[4] = human, in vivo
Procedure: Design/Methods: 11,11-D2-linoleic acid ethyl ester was administered to the patient at 2.7 g (BID) and periodic repeat assessments including baseline measurement of PK, activities of daily living (ADL), 25 foot walk time (25FWT), and 6 minute walk distance (6MWD) were made. In particular, ADLs were measured individually on a scale of 0-5 across a 12 element panel representing speech, strength, coordination, etc.

[5] = tested on: patient with late onset Tay-Sachs disease (LOTS); assay: Case study in a single patient with late onset Tay-Sachs disease: ADL, 25FWT, 6MWD, tolerability; assay type: in vivo, human; conditions: 2.7 g BID; for Composite ADL Score: baseline 0; for 25FWT: baseline 12.7
Text: In this example, a case study of using 11,11-D2-linoleic acid ethyl ester to treat a single patient with late onset Tay-Sachs disease (LOTS) and the study results was reported.

For `[2H]C([2H])(/C=C\CC)/C=C\C([2H])([2H])/C=C\CCCCCCCC(=O)O` [D4-ALA, 11,11,14,14-Tetradeutero-cis,cis,cis-9,12,15-Octadecatrienoic acid], the cell viability (murine FRDA cell model) is given as “protect cells from loss of viability”, the cell viability [1] is given as “rescue cells from loss of viability” and the lipid peroxidation (yeast model of FRDA) is given as “decreased lipid peroxidation”. For the same compound, the lipid peroxidation (murine model of FRDA) was “prevent lipid peroxidation” and the “protection against oxidative stress” value (H9C2 myoblasts) was “protective against oxidative stress”.
In the case of `[2H]C([2H])(/C=C\CCCCC)/C=C\CCCCCCCC(=O)O` [11,11-D2-linoleic acid, 11,11-Dideutero-cis,cis-9,12-Octadecadienoic acid], the NOAEL at 8 weeks (in vivo) is reported as ~362 mg/kg, the NOAEL at 26 weeks (in vivo) is reported as ~452 mg/kg and the “progression of disease, clinical examination” value ([2]; 3 months, since start of trial, n=1) is reported as “no progression of disease”. The “qualitative measures in videotaped sessions (eye tracking, responsiveness, head control, lifting, reaching and grasping)” value ([2]; after 6 months) was “improved in qualitative measures”, the “drug related adverse events” value ([2]; human, in vivo) was “no drug related adverse events of any sort reported” and the safety and tolerability ([2]; human, in vivo) was “safe and well-tolerated”. For the same compound, the ability to grasp ([2]; parents' report at 4 months) was “regained ability to grasp spoon and hold”, the constipation ([2]; parents' report at 4 months) was “constipation resolved” and the eating ([2]; parents' report at 4 months) was “can eat (chew and swallow) food such as banana”. For the same compound, the “responsiveness to verbal requests” value ([2]; parents' report at 4 months) was “newly responsive to verbal requests during therapy”, the salivation down ([2]; parents' report at 4 months) was 99% and the muscle strength ([2]; parents' report at 4 months, grasping and lifting rattle) was “better muscle strength”. For the same compound, the ability to swallow ([2]; parents' report at 4 months, vs. syringe feeding) was “regained ability to swallow using sipper cup”, the overall patient status ([2]; starting within a month of dosing until one year) was “the patient has improved” and the “deuterated arachidonic acid in plasma, of total arachidonic acid” value ([3]; 1 month) was 0.6%. The “deuterated arachidonic acid in plasma, of total arachidonic acid” value ([3]; 3 months) was 3.0%, the “time to significant plasma levels and red blood cell (RBC) membrane incorporation” value [4] was ≤ 1 month and the cell viability (murine FRDA cell model) was “protect cells from loss of viability”. For the same compound, the cell viability [1] was “rescue cells from loss of viability”.
In the case of `[2H]C([2H])(/C=C\CCCCC)/C=C\CCCCCCCC(=O)OCC` [11,11-D2-linoleic acid ethyl ester], the disease progression [5] is reported as “Early efficacy signs of inhibition of disease progression and some regression were seen”, the tolerability / toxicities [5] is reported as “well tolerated with no toxicities reported” and the “# of ADLs improved” value ([5]; 30 d) is reported as 6. For the same compound, the “Composite ADL Score” value ([5]; 30 d, 12 element panel, scale 0-5) was “+6”, the 25FWT ([5]; 30 d) was 12.1 s and the “# of ADLs improved” value ([5]; 120 d) was 8. For the same compound, the “Composite ADL Score” value ([5]; 120 d) was “+9”, the 25FWT ([5]; 120 d) was 11.2 s and the “D-LA(%) D-LA + H-LA Plasma” value [4] was 36%. For the same compound, the “D-LA(%) D-LA + H-LA RBC” value [4] was 28%.

Source: patent US20210252173A1, “STABILIZED POLYUNSATURATED COMPOUNDS AND USES THEREOF” (RETROTOPE, INC., priority 2018, published 2021)
